A short description of data set [1]: MTT colorimetric assay, normal SVG p12 cells. Conditions: human, SVG p12 cells (normal human brain astroglia), Cell viability (%) SVG p12, conc. 10 μM, 46 hours with drug, then 2 hours MTT, ratio to control group without drug.
Excerpt: (§1) MTT (tetrazole) assay used to determine tumor viability is based on measurement of the activity of dehydrogenase to determine cell growth conditions. In live cells, dehydrogenase in active mitochondria converts yellow MTT [3-(4,5-dimethylthiazol-2-yl)-2,5-diphenyltetra zolium bromide] into purple formazan on the reductive cleavage of its tetrazolium ring. The formazan crystal is examined under the microscope. While the mitochondria in dead cells are without active dehydrogenase, no crystal is generated and the color remains yellow. After adding MTT into cell cultures and reacting for 2 hours, the amount of generated formazan precipitate is proportional to total amount of dehydrogenase. Removing the culture medium, add DMSO to dissolve the purple formazan precipitate. Then measure the absorbance of the precipitate by is measured by the spectrophotometer at 560/670 nm so as to learn inhibition effect of drugs acted on normal cells and tumor cells.
(§2) GBM 8401, GBM 8901 (human brain glioblastoma) and SVG p12 (human brain astroglia)cells line are selected to be used in 96 well petri dishes. Each well is filled into the same amount of cells-about 5000 cells per well. After being cultured for 24 hours and cells anchor/attach, the 96 wells are divided into two groups-an experimental group and a control group containing no samples. The samples are diluted into 10 μg/mL by culture medium. Take 200 μL of each sample and add into the experimental group and the control group is added with 200 μL culture medium without samples. After 46 hours of culture, each well is added with 10 μL MTT solution, incubate cells at 37° C., 5% CO2 for 2 hours.
(§3) Then each well is added with 100 μL, dissolving formazan. Shaking for 10 minutes and measure the absorbance at 560/670 nm of the sample by the spectrometer. The data of the experimental group is divided by the data of the control group to get the estimated cell viability.
(§4) Three cell lines-GBM 8401, GBM 8901, SVG p12 (normal) are used in cytotoxicity tests of 1,8-bis-substituted amidoanthraquinone. After reacting with the drug for 46 hours, the cells are reacted with certain amount of MTT solution. After 2 hours, DMSO is used to dissolve formazan and O.D. (optical density) at 560/670 nm is measured. Then calculate the radios of the experimental groups (with drugs) to the control groups (without drugs).
The subject of data set [2] is GBM 8901 (human brain glioblastoma) cells. Description: MTT colorimetric assay, GBM 8901 cells. Conditions: for viability at 10 µM: Homo sapiens, read-out: Cell viability (%) GBM 8901, conc. 10 μM; for inhibition of growth of tumor cells GBM 8901 (in words): primary screening, 10 μM, criterion viability less than 80%.
Excerpt: as §1, §2, §3, §4
Data set [3] has as its system GBM 8401 (human brain glioblastoma) cells. Description: MTT colorimetric assay, GBM 8401 cells. Conditions: for viability at 10 µM: Homo sapiens, read-out: Cell viability (%) GBM 8401, conc. 10 μM; for inhibition of proliferation of tumor cells GBM 8401 (in words): primary screening, 10 μM, criterion viability less than 80%. On the technique in general: Tetrazolium dyes change colour on reduction, which living cells bring about.
Excerpt: as §1, §2, §3, §4

The mark [4] stands for this setting: 46 hours with drug, then 2 hours MTT, ratio to control group without drug.
Where [5] appears, read: conc. 10 μM, 46 hours with drug, then 2 hours MTT, ratio to control group without drug.

“Also recorded” adds a separate entry of the source.

In the case of `COC(=O)CN(C)CC(=O)Nc1cccc2c1C(=O)c1c(NC(=O)CN(C)CC(=O)OC)cccc1C2=O` [Compound 3f, 1,8-Bis[2-(sacrocinemethyl ester)acetamido]anthraquinone], the melting point is 129 to 130 °C. In addition, the viability at 46 h, 10 μM in data set [1] was found to be 172 ± 2%. Also, the viability at 10 µM in data set [2] (setting [4]) is 107 ± 5%. Further, the viability at 10 µM in data set [3] (setting [4]) is 130 ± 20%.
With `CC(C)NCCC(=O)Nc1cccc2c1C(=O)c1c(NC(=O)CCNC(C)C)cccc1C2=O` [Compound 4i], the melting point lay in the range of 105 to 106 °C. In data set [1], the viability at 46 h, 10 μM stood at 5 ± 1%. Also, the viability at 10 µM in data set [2] (setting [4]) worked out at 8 ± 2%. The viability at 10 µM in data set [3] (setting [4]) came out at 2 ± 1%.
Regarding `CCCN(CCC)CC(=O)Nc1cccc2c1C(=O)c1c(NC(=O)CN(CCC)CCC)cccc1C2=O` [Compound 3n, 1,8-Bis[2-(dipropylamino)acetamido]anthraquinone], in data set [1], the viability at 46 h, 10 μM was determined as 73 ± 30%. The viability at 10 µM turned out to be 73 ± 5% in data set [2] (setting [4]) and 106 ± 24% in data set [3] (setting [4]). Also, the “inhibition of growth of tumor cells GBM 8901 (in words)” value (from here on “inhibition of growth … (in words)”) in data set [2] is recorded as “inhibit growth”.
`CC(C)CNCC(=O)Nc1cccc2c1C(=O)c1c(NC(=O)CNCC(C)C)cccc1C2=O` [Compound 3k, 1,8-Bis[2-(isobutylamino)acetamido]anthraquinone]: the values for the viability at 10 µM in data set [2] (setting [4]) and in data set [3] (setting [4]) were 57 ± 16% and 95 ± 12%, respectively. The “inhibition of growth … (in words)” value in data set [2] was “inhibit growth”.
In the case of `COC(=O)[C@H]1CCCN1CC(=O)Nc1cccc2c1C(=O)c1c(NC(=O)CN3CCC[C@H]3C(=O)OC)cccc1C2=O` [Compound 3c, 1,8-Bis[2-(prolinemethyl ester)acetamido]anthraquinone], the melting point fell in the range of 170 to 171 °C. Besides, in data set [1], the viability at 46 h, 10 μM was found to be 121 ± 5%. Further, in data set [2] (setting [4]), the viability at 10 µM is 96 ± 3%. Also, in data set [3] (setting [4]), the viability at 10 µM amounted to 83 ± 15%.
The matching figures for `O=C(CNCc1cccc(C(F)(F)F)c1)Nc1cccc2c1C(=O)c1c(NC(=O)CNCc3cccc(C(F)(F)F)c3)cccc1C2=O` [Compound 3q, 1,8-Bis [2-(3-(trifluoromethyl)benzylamino)acetamido]anthraquinone]: 190 to 191 °C, 135 ± 20%, 83 ± 10% and 120 ± 26%.
The matching figures for `CN(C)CCCNCCC(=O)Nc1cccc2c1C(=O)c1c(NC(=O)CCNCCCN(C)C)cccc1C2=O` [Compound 4j, 1,8-Bis[2-(dimethylpropanediamino)propionamido]anthraquinone]: 107 to 108 °C, 33 ± 16%, 22 ± 9% and 9 ± 2%.
For the compound `COC(=O)CNCC(=O)Nc1cccc2c1C(=O)c1c(NC(=O)CNCC(=O)OC)cccc1C2=O` [Compound 3a, 1,8-Bis[2-(glycinmethyl ester)acetamido]anthraquinone], the melting point fell in the range of 173 to 174 °C. For the same compound, the viability at 46 h, 10 μM in data set [1] stood at 93 ± 6%. For the same compound, the viability at 10 µM in data set [2] (setting [4]) is 104 ± 2%. In addition, the viability at 10 µM in data set [3] (setting [4]) is 95 ± 10%.
In the case of “(S)-1,8-Bis[2-(phenylglycin methyl ester)acetamido]anthraquinone [Compound 3j]”, in data set [2], the “inhibition of growth … (in words)” value was “inhibit growth”. Also, in data set [3], the “inhibition of proliferation of tumor cells GBM 8401 (in words)” value (“inhibition of proliferation … (in words)” for short) was “inhibit proliferation; also recorded: quite good inhibition effects”.
`O=C(CCNCc1cc(F)cc(F)c1)Nc1cccc2c1C(=O)c1c(NC(=O)CCNCc3cc(F)cc(F)c3)cccc1C2=O` [Compound 4c, 1,8-Bis[3-(3,5-difluorobenzylamino)propionamido]anthraquinone] gave a melting point of 190 to 191 °C. In addition, in data set [1], the viability at 46 h, 10 μM was greater than 80%. In addition, the viability at 10 µM in data set [2] (setting [4]) was 11 ± 9%. Also, the viability at 10 µM in data set [3] (setting [4]) came to 14 ± 1%.
`CCCN(C)CC(=O)Nc1cccc2c1C(=O)c1c(NC(=O)CN(C)CCC)cccc1C2=O` [Compound 3s] registered a melting point of 159 to 160 °C. In addition, the viability at 46 h, 10 μM in data set [1] stood at 132 ± 3%. Moreover, the viability at 10 µM in data set [2] (setting [4]) worked out at 107 ± 9%. For the same compound, in data set [3] (setting [4]), the viability at 10 µM is 103 ± 9%.
The compound `CCN(C)CCC(=O)Nc1cccc2c1C(=O)c1c(NC(=O)CCN(C)CC)cccc1C2=O` [Compound 4k] returned a melting point of 129 to 130 °C. Further, the viability at 46 h, 10 μM in data set [1] was determined as 2%. In addition, in data set [2] (setting [4]), the viability at 10 µM is 7 ± 3%. Moreover, the viability at 10 µM in data set [3] (setting [4]) is 1 ± 3%.
Turning to `CCN(CC)CC(=O)Nc1cccc2c1C(=O)c1c(NC(=O)CN(CC)CC)cccc1C2=O` [Compound 3l, 1,8-Bis[2-(diethylamino)acetamido]anthraquinone], the melting point was 228 to 229 °C. The viability at 46 h, 10 μM in data set [1] was determined as 123 ± 13%. In addition, in data set [2] (setting [4]), the viability at 10 µM was 94 ± 26%. The viability at 10 µM in data set [3] (setting [4]) is 91 ± 17%.
For the compound `COC(=O)[C@@H](NCC(=O)Nc1cccc2c1C(=O)c1c(NC(=O)CN[C@@H](C(=O)OC)C(C)C)cccc1C2=O)C(C)C` [Compound 3d, (L)-1,8-Bis[2-(valinemethyl ester)acetamido]anthraquinone], the melting point lay in the range of 150 to 151 °C. The viability at 46 h, 10 μM in data set [1] came out at 87 ± 7%. Moreover, the viability at 10 µM in data set [2] (setting [4]) is 97 ± 22%. Further, in data set [3] (setting [4]), the viability at 10 µM turned out to be 99 ± 40%.
The matching figures for `CN(C)CCNCCC(=O)Nc1cccc2c1C(=O)c1c(NC(=O)CCNCCN(C)C)cccc1C2=O` [Compound 4e, 1,8-Bis[2-(dimethylethanediamino)propionamido]anthraquinone]: 100 to 102 °C, 13 ± 3%, 10 ± 5% and 14 ± 2%.
Regarding `CCNCC(=O)Nc1cccc2c1C(=O)c1c(NC(=O)CNCC)cccc1C2=O` [Compound 3p, 1,8-Bis[2-(ethanamino)acetamido]anthraquinone], in data set [1], the viability at 46 h, 10 μM is 3 ± 1%. The viability at 10 µM in data set [2] (setting [4]) came out at 4 ± 1%; in data set [3] (setting [4]), 2 ± 1%. Further, in data set [2], the “inhibition of growth … (in words)” value was “inhibit growth”. Also, the “inhibition of proliferation … (in words)” value in data set [3] is “inhibit proliferation; also recorded: quite good inhibition effects”.
Turning to `CCN(CC)CCC(=O)Nc1cccc2c1C(=O)c1c(NC(=O)CCN(CC)CC)cccc1C2=O` [Compound 4a, 1,8-Bis[3-(diethylamino)propionamido]anthraquinone], the melting point was 160 to 161 °C. In data set [1], the viability at 46 h, 10 μM stood at 3%. In data set [2] (setting [4]), the viability at 10 µM was found to be 3 ± 2%. Besides, the viability at 10 µM in data set [3] (setting [4]) is 4%.
With `COC(=O)[C@H](C)NCC(=O)Nc1cccc2c1C(=O)c1c(NC(=O)CN[C@H](C)C(=O)OC)cccc1C2=O` [Compound 3i, (D)-1,8-Bis[2-(alalinemethyl ester)acetamido]anthraquinone], the “Cell viability (%) GBM 8901” value in data set [2] (setting [5]) is given as 99 ± 11%. Also, in data set [3] (setting [5]), the “Cell viability (%) GBM 8401” value is 64 ± 13%. Further, in data set [3], the “inhibition of proliferation … (in words)” value was “inhibit proliferation; also recorded: quite good inhibition effects”.
With `CNCCC(=O)Nc1cccc2c1C(=O)c1c(NC(=O)CCNC)cccc1C2=O` [Compound 4h], the melting point is 233 to 234 °C. Moreover, in data set [1], the viability at 46 h, 10 μM stood at 4%. Further, in data set [2] (setting [4]), the viability at 10 µM amounted to 10 ± 1%. In addition, the viability at 10 µM in data set [3] (setting [4]) is 9 ± 2%.
With `CC(C)NCC(=O)Nc1cccc2c1C(=O)c1c(NC(=O)CNC(C)C)cccc1C2=O` [Compound 3o, 1,8-Bis[2-(isopropylamino)acetamido]anthraquinone], the viability at 46 h, 10 μM in data set [1] was 4 ± 1%. Further, the viability at 10 µM in data set [2] (setting [4]) is 5 ± 1%; in data set [3] (setting [4]), 4 ± 1%. For the same compound, the “inhibition of growth … (in words)” value in data set [2] is on record as “inhibit growth”. The “inhibition of proliferation … (in words)” value in data set [3] was “inhibit proliferation; also recorded: quite good inhibition effects”.
`CN(C)CCC(=O)Nc1cccc2c1C(=O)c1c(NC(=O)CCN(C)C)cccc1C2=O` [Compound 4f] gave a melting point of 116 to 117 °C. Further, the viability at 46 h, 10 μM in data set [1] came out at 4 ± 3%. Besides, the viability at 10 µM in data set [2] (setting [4]) was 7 ± 3%. The viability at 10 µM in data set [3] (setting [4]) amounted to 3%.
Take `CN(C)CC(=O)Nc1cccc2c1C(=O)c1c(NC(=O)CN(C)C)cccc1C2=O` [Compound 3m, 1,8-Bis[2-(dimethylamino)acetamido]anthraquinone]: the viability at 46 h, 10 μM in data set [1] is greater than 80%. The viability at 10 µM amounted to 84 ± 9% in data set [2] (setting [4]) and 60 ± 5% in data set [3] (setting [4]). The “inhibition of proliferation … (in words)” value in data set [3] is “inhibit proliferation; also recorded: quite good inhibition effects”.
`CC(C)CNCCC(=O)Nc1cccc2c1C(=O)c1c(NC(=O)CCNCC(C)C)cccc1C2=O` [Compound 4b, 1,8-Bis[3-(isobutylamino)propionamido]anthraquinone] displayed a melting point of 224 to 225 °C. For the same compound, in data set [1], the viability at 46 h, 10 μM was found to be 4%. Besides, the viability at 10 µM in data set [2] (setting [4]) is 7 ± 3%. For the same compound, in data set [3] (setting [4]), the viability at 10 µM turned out to be 4 ± 1%.
In the case of `CCN(C)CC(=O)Nc1cccc2c1C(=O)c1c(NC(=O)CN(C)CC)cccc1C2=O` [Compound 3r, 1,8-Bis[2-(ethylmethylamino)acetamido]anthraquinone], the melting point lay within 186 to 187 °C. In addition, the viability at 46 h, 10 μM in data set [1] was determined as 125 ± 7%. Moreover, in data set [2] (setting [4]), the viability at 10 µM was 98 ± 12%. Also, the viability at 10 µM in data set [3] (setting [4]) was found to be 90 ± 2%.
Consider `COC(=O)[C@H](COC(C)(C)C)NCC(=O)Nc1cccc2c1C(=O)c1c(NC(=O)CN[C@H](COC(C)(C)C)C(=O)OC)cccc1C2=O` [Compound 3t, 1,8-Bis[2-(tert-butyl-serinemethyl ester)acetamido]anthraquinone], for which the viability at 46 h, 10 μM in data set [1] was greater than 80%. For the same compound, the figures for the viability at 10 µM in data set [2] (setting [4]) and in data set [3] (setting [4]) were 69 ± 4% and 98 ± 19%, respectively. For the same compound, the “inhibition of growth … (in words)” value in data set [2] is “inhibit growth”.

For orientation: viability means a read-out of living cells in per cent, often relative to untreated cells. As usually defined, the melting point is the temperature of the solid-liquid transition.
